The nature of data set [1]: Acute toxicity (LD50), intravenous administration, mouse. The settings on record: in vivo. The text has this: (§1) Ihre Toxizität ist geringer als die des aus einem Gemisch von Kondensationsprodukten aus m-Kresolsulfonsäuren und Formaldehyd bestehenden Handelsprodukts. In der nachstehenden Tabelle sind die bei intravenöser Verabreichung an Maus und Ratte ermittelten LDSo-Werte des Dinatriumsalzes der 2,2'-Dihydroxy-5,5'-methylendi-(p-toluolsulfonsäure) (A) und des mit Natriumhydroxid neutralisierten Handelsprodukts (B) aufgeführt.

Data set [2] is described as follows: Acute toxicity (LD50), intravenous administration, rat. To be noted: in vivo.
From the text: as §1

These results are taken from patent EP0029990A1, “Biphenylmethane derivative, methods for its production and pharmaceutical compositions containing it” (Byk Gulden Lomberg Chemische Fabrik GmbH, priority 1979, dated 1981).

The LD50 is the dose at which mortality reaches 50%. A lower LD50 goes with a more toxic substance. On to `Cc1cc(O)c(S(=O)(=O)O)cc1Cc1cc(S(=O)(=O)O)c(O)cc1C` [A, Dinatrium-2,2'-dihydroxy-5,5'-methylendi-(p-toluolsulfonat)-monohydrat], for which the LD50 in data set [1] (Maus ♀) was determined as 1050 mg/kg; in data set [1] (Maus ♂), 1100 mg/kg; in data set [2] (Ratte ♀) it was 990 mg/kg; in data set [2] (Ratte ♂) it was 930 mg/kg.
